Reference: article PMC6390583 (BMC rheumatology, 2018)
Where two headings read alike, the source gives them in different places.

Tests used:
[1] = test system: IL-2 induced STAT5 phosphorylation; test: IL-2 induced STAT5 phosphorylation in activated T-cells; type: cell-based; settings: T-blasts, JAK 1/3, read-out: Human IC50, IL-2 pSTAT5
Experimental: (§1) IL-6 and Oncostatin M (OSM) induced STAT3 phosphorylation was assessed in the human erythroleukemia TF-1 cell line. Erythropoietin-induced STAT5 phosphorylation was assessed in the human UT-7 cell line. IL-2 and IL-15 induced STAT5 phosphorylation was assessed in activated human T-cells. Detection of phosphorylated STATs was accomplished with the SureFire pSTAT5 or pSTAT3 Assay kit (Perkin Elmer, Hopkinton, MA) per standard manufacturer’s protocol, with the exception of an overnight incubation following addition of donor beads before detection on the EnVision (Perkin Elmer, Hopkinton, MA). IFNγ induced STAT1 phosphorylation was assessed in the CD14+ monocyte population in human PBMC by flow cytometry. CD14 BV421 was purchased from BD Biosciences (San Jose, CA). STAT1 PE ([…]) was purchased from ThermoFisher Scientific (Waltham, MA). IL-4 and IL-13 induced STAT6 phosphorylation and IL-31 induced STAT3 phosphorylation were assessed in adult human epithelial keratinocytes (HEKa, ThermoFisher Scientific, Waltham, MA) by flow cytometry. STAT6 PE (pY641) and STAT3 PE (Y705) were purchased from BD Biosciences (San Jose, CA).

[2] = test system: IL-6 induced pSTAT3, CD14+ whole blood; test: IL-6 signaling in human whole blood, CD14+ monocytic population; type: cell-based; settings: JAK 1
[3] = test system: IL-6 induced pSTAT3, CD3+ whole blood; test: IL-6 signaling in human whole blood, CD3+ T-cell population; type: cell-based; settings: JAK 1
[4] = test system: CD3-/CD16+/CD56+ NK cells; test: Circulating NK cell analysis after 14 days dosing; type: in vivo, rat
Experimental: Blood was collected and stained using BD MultiTest IMK kit (BD Biosciences, San Jose, CA) per manufacturer’s instructions. NK cell numbers were determined by using FlowJo analysis software (FlowJo, LLC, Ashland, OR) and by examining the CD3^−/CD16^+/CD56^+ population. The number of cells/μL was calculated by using the following equation: (# events in cell population/# of events in absolute bead count region) × (# beads per test/test volume), with the value beads per test indicated on the BD Trucount tube label.

[5] = test system: IL-6 induced STAT3 phosphorylation; test: IL-6 induced STAT3 phosphorylation in TF-1 cells; type: cell-based; settings: Homo sapiens, JAK 1, read-out: Human IC50, IL-6 pSTAT3
Experimental: as §1

[6] = biological target: STK33 (Homo sapiens, UniProt Q9BYT3); test: trFRET binding kinome profiling
Experimental: (§2) JAK activity assays using isolated kinase domains in the presence of 0.1 mM ATP and trFRET kinome profiling were conducted as described previously (17).

[7] = biological target: PKA (Homo sapiens, UniProt P17612); test: trFRET binding kinome profiling
Experimental: as §2

[8] = biological target: JNK2 (Homo sapiens, UniProt P45984); test: trFRET binding kinome profiling
Experimental: as §2

[9] = biological target: TrkB (Homo sapiens, UniProt Q16620); test: trFRET binding kinome profiling
Experimental: as §2

[10] = biological target: DDR1 (Homo sapiens, UniProt Q08345); test: trFRET binding kinome profiling
Experimental: as §2

[11] = biological target: PKCzeta (Homo sapiens, UniProt Q05513); test: trFRET binding kinome profiling
Experimental: as §2

[12] = biological target: T1, PAK4KD (Homo sapiens, UniProt O96013); test: trFRET binding kinome profiling
T1 construct: PAK4KD
Experimental: as §2

[13] = biological target: EGFR (Homo sapiens, UniProt P00533); test: trFRET binding kinome profiling
Experimental: as §2

[14] = biological target: CDK9/Cyclin K (Homo sapiens, UniProt P50750); test: trFRET binding kinome profiling
Experimental: as §2

[15] = biological target: p38 alpha (Homo sapiens, UniProt Q16539); test: trFRET binding kinome profiling
Experimental: as §2

[16] = biological target: ALK (Homo sapiens, UniProt Q9UM73); test: trFRET binding kinome profiling
Experimental: as §2

[17] = biological target: TNK2 (Homo sapiens, UniProt Q07912); test: trFRET binding kinome profiling
Experimental: as §2

[18] = test system: IL-15 induced STAT5 phosphorylation; test: IL-15 induced STAT5 phosphorylation in activated T-cells; type: cell-based; settings: Homo sapiens, T-cell; T-blasts, JAK 1/3; read-out: Human IC50, IL-15 pSTAT5
Experimental: as §1

[19] = test system: Erythropoietin-induced STAT5 phosphorylation; test: Erythropoietin-induced STAT5 phosphorylation in UT-7 cells; type: cell-based; settings: Homo sapiens; UT7 cells, JAK 2; read-out: Human IC50, Epo pSTAT5
Experimental: as §1

CDK9/Cyclin K, sequence (P50750 whole entry, species assumed): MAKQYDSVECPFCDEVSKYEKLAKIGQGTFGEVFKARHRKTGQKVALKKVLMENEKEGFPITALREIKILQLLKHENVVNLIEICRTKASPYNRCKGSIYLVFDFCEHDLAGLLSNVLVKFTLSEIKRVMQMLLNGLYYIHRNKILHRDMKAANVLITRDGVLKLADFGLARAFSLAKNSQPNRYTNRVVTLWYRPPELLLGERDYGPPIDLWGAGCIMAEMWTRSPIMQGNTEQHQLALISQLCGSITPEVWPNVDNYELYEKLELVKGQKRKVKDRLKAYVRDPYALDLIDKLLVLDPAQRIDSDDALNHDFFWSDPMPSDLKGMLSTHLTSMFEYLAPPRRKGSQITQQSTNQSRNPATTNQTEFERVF
CDK9/Cyclin K, sequence (O75909 whole entry partner, species assumed): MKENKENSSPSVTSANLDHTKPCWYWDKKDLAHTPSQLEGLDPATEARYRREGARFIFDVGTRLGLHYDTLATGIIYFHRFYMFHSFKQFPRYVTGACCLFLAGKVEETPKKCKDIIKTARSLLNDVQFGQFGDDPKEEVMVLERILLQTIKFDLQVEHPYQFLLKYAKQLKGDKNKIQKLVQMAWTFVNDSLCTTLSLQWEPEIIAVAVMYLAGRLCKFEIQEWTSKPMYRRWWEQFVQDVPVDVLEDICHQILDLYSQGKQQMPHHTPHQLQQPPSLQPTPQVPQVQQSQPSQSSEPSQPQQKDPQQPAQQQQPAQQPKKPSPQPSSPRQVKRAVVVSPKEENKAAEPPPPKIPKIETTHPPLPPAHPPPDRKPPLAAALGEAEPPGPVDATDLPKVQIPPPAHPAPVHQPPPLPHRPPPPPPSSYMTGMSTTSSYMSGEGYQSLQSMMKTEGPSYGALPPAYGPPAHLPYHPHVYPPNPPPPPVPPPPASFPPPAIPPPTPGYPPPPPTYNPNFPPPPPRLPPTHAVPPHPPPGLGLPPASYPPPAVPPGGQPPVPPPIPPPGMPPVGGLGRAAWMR
JNK2, sequence (P45984 whole entry, species assumed): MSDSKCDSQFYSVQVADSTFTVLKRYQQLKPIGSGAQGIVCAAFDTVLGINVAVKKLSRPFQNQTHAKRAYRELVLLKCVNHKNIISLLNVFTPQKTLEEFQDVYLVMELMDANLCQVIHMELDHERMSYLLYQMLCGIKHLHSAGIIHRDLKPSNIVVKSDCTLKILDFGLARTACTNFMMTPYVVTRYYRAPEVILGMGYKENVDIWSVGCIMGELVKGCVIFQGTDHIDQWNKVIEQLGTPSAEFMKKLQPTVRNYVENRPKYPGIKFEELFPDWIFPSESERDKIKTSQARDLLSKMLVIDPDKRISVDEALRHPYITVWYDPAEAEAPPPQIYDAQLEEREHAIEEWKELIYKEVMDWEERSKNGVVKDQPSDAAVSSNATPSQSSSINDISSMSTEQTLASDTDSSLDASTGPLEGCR
ALK, sequence (Q9UM73 19-1620, species assumed): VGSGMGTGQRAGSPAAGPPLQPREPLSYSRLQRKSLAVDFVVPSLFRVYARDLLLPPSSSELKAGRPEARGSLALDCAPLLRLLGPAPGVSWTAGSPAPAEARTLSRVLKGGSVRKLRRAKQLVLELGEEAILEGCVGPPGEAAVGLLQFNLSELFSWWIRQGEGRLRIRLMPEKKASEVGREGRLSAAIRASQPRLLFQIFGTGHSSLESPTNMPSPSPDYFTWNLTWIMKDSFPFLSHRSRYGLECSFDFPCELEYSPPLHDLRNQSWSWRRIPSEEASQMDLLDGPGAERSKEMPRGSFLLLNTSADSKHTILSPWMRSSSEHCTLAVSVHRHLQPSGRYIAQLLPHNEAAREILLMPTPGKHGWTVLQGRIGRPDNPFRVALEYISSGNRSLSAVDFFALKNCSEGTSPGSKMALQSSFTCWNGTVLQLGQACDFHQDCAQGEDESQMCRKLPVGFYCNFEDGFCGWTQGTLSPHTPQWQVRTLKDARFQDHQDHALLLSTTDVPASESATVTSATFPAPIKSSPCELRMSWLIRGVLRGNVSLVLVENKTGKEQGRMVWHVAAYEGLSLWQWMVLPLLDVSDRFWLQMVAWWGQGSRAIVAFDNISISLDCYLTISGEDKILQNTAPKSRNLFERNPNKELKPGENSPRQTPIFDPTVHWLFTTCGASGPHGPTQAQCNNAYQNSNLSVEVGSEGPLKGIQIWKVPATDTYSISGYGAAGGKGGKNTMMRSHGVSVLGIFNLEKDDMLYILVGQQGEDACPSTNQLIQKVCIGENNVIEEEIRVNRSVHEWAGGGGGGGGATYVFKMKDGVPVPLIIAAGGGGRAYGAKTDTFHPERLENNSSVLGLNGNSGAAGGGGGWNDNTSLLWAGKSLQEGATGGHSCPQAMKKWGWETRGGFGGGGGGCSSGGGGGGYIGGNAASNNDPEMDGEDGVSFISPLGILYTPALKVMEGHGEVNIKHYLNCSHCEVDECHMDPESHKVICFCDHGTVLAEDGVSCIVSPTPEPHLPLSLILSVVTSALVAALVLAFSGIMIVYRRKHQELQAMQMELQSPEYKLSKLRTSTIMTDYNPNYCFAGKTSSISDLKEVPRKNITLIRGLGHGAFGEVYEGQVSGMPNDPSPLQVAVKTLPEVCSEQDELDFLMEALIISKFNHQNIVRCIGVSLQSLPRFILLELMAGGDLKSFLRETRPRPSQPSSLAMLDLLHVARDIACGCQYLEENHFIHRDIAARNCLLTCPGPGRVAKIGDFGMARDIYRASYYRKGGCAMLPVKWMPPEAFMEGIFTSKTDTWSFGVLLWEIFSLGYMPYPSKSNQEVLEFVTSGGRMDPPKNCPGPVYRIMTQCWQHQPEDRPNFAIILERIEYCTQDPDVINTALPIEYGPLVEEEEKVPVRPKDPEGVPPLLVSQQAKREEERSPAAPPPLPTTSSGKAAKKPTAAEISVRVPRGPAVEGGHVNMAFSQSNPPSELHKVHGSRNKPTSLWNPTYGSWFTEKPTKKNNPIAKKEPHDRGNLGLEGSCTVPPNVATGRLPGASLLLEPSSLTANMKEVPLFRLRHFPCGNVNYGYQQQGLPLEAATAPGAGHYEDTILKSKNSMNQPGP
T1 sequence (O96013 321-572 limits assumed): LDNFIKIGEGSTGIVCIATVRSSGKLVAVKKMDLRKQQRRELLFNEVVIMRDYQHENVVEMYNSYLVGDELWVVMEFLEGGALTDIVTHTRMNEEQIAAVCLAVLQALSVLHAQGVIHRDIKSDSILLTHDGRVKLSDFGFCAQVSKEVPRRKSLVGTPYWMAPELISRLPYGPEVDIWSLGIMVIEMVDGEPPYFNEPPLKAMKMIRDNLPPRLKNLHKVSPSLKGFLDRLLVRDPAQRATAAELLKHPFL
DDR1, sequence (Q08345 19-913, species assumed): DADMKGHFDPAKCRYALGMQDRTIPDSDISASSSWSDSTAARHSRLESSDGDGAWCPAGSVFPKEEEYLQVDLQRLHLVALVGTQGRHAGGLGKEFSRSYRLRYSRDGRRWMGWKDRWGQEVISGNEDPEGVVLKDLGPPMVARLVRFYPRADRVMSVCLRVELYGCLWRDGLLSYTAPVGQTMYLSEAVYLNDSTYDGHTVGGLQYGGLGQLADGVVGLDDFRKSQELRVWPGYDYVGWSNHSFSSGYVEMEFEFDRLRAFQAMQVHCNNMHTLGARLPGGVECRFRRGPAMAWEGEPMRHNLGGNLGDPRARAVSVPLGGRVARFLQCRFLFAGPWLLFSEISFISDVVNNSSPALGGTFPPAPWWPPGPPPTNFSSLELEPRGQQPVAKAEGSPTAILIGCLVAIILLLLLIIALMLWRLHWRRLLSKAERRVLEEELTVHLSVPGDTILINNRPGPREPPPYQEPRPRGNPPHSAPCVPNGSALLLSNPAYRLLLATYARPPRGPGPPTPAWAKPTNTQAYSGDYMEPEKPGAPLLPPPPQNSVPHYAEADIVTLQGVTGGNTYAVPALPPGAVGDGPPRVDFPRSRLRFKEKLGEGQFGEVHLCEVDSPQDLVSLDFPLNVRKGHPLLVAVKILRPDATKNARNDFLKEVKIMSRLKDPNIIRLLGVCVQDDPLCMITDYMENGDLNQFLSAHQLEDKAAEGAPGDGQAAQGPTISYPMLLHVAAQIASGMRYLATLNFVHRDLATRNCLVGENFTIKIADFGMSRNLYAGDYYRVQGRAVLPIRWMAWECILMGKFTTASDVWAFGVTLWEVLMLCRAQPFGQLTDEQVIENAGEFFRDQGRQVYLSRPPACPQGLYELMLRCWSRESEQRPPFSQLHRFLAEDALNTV
STK33, sequence (Q9BYT3 whole entry, species assumed, the tested form may be a part): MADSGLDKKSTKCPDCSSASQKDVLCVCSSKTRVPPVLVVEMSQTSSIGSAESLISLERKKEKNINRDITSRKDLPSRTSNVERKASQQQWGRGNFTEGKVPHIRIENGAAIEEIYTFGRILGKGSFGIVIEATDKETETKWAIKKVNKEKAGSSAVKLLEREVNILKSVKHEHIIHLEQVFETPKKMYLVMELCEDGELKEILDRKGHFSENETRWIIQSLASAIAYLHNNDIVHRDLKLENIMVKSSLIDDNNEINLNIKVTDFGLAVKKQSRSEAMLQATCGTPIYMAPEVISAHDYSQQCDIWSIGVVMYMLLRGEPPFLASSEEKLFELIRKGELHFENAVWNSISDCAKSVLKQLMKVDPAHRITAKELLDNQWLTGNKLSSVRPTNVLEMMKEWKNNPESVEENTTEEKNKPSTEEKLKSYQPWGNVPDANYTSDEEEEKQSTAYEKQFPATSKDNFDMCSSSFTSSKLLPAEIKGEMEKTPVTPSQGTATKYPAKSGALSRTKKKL
p38 alpha, sequence (Q16539 whole entry): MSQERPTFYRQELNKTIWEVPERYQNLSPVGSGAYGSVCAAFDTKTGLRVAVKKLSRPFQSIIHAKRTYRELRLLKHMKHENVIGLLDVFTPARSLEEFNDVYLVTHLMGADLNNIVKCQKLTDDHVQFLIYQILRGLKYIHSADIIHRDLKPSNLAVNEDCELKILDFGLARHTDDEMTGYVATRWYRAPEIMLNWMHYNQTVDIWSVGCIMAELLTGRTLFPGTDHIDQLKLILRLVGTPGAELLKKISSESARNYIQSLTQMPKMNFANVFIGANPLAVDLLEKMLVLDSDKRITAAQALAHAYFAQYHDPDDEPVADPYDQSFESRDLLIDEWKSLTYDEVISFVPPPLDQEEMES

CC[C@@H]1CN(C(=O)NCC(F)(F)F)C[C@@H]1c1cnc2cnc3[nH]ccc3n12 [upadacitinib, (3S,4R)-3-ethyl-4-(3H-imidazo [1,2-a]pyrrolo [2,3-e]pyrazin-8-yl)-N-(2,2,2-trifluoroethyl) pyrrolidine-1-carboxamide]
IC50 ([1]; Homo sapiens, T-cell): 13 nM | IC50 [1]: 10 nM | IC50 [2]: 78 nM | IC50 [3]: 207 nM | AUC60 for decrease of circulating NK cell numbers ([4]; naive rats dosed orally for 14 days): 480 ng·h/mL | Decrease in circulating NK cells at AUC60 ([4]; rat, at AUC60 of paw swelling): 25% | IC50 [5]: 11 nM | IC50 [6]: > 10000 nM | IC50 [7]: > 10000 nM | IC50 [8]: > 10000 nM | IC50 [9]: > 10000 nM | IC50 [10]: > 10000 nM | IC50 [11]: > 10000 nM | IC50 [12]: > 10000 nM | IC50 [13]: > 10000 nM | IC50 [14]: > 10000 nM | IC50 [15]: > 10000 nM | IC50 [16]: > 5500 nM | IC50 [17]: 5100 nM | IC50 [18]: 22 nM | IC50 [19]: 649 nM
